Measurements: patent publication US20100022401A1, “Avidin-like proteins from symbiotic bacteria” (LICENTIA OY, priority 2004, published 2010)
Where two headings read alike, the source gives them in different places. Marks after values point to notes of the source that are not given here.

Tests used:
[1] = radio-biotin; streptavidin values from Klumb et al., 1998; cited from earlier work
[2] = values from Bayer et al., 1996, cited from earlier work
[3] = Fluorescent biotin conjugate dissociation assay; assay type: binding
Protocol: FIG. 2 Biotin dissociation analysis. (A) The [3H]biotin dissociation rate constant was measured at different temperatures. The values for streptavidin are from Klumb et al. (Klumb et al., 1998). The scale of the Y axis is logarithmic. (B) Release of fluorescent biotin conjugate from avidins was studied as a function of time in the presence of excess D-biotin at 50° C.
Ligand binding properties were studied both by [3H]biotin assay and fluorescent biotin conjugate assay. The dissociation rate constant of [3H]biotin (Amersham) from the bradavidins and avidin was measured at various temperatures as described in detail previously (Klumb et al., 1998). According to the results, (Table I, FIG. 2) the faster dissociation rate measured from bradavidin indicates weaker affinity toward the radiobiotin than those of avidin and streptavidin. The dissociation rate of a fluorescent biotin conjugate (ArcDia BF560™-biotin) was measured as previously described (Hytönen et al., 2004a) at 50° C.
The apparent molecular mass is indicated and followed by the theoretical mass in brackets. Transition temperature (Tr) indicates the temperature in which half of the protein is tetrameric and half monomeric in the absence (first value) and presence (second value) of biotin. In addition to the measured dissociation rate constant (kdiss), the release percentage of the fluorescent biotin conjugate in one hour in the presence of excess free biotin is indicated. Calculated isoelectrical point (pI) and the number of cysteine residues per monomer are also indicated.

Which results are given for “Streptavidin: bacterial analog for avidin from S. avidinii (SEQ ID NO:7) [reference compound]”?
[3H]biotin dissociation rate (in words) [1]: fell between these two; Heat treatment SDS-PAGE Tr (transition temperature) ([2]; absence of biotin): 72^a ° C.; Heat treatment SDS-PAGE Tr (transition temperature) ([2]; presence of biotin): 100^a ° C.; Fluorescent biotin kdiss ([3]; ArcDia BF560-biotin, 50° C.): 7.2e-06 s⁻¹; Fluorescent biotin conjugate dissociation (in words) ([3]; fluorescent biotin conjugate as ligand): very slow and small release; Release 1 h of fluorescent biotin conjugate ([3]; one hour, presence of excess free biotin, 50° C.): 5.1%
